In patent US11066443B2 (Hoffmann-La Roche Inc., priority 2017, dated 2021):
Values after ≈ are worked out from the molar mass of the structure shown.

Tests used:
[1] = test system: P. aeruginosa ATCC27853; assay: Antimicrobial susceptibility testing: microbroth minimum inhibitory concentration (MIC) determination; type: cell-based; settings: Pseudomonas aeruginosa, CLSI microbroth dilution in CAMHB, read after 20 hours, lowest concentration inhibiting >=80% of growth
Method: The in vitro antimicrobial activity of the compounds was determined through microbroth minimum inhibitory concentration (MIC) methodology performed according to the Clinical and Laboratory Standard Institute guidelines (CLSI—M07-A9 Jan. 2012. Methods for Dilution Antimicrobial Susceptibility Tests for Bacteria That Grow Aerobically; Approved Standard—Ninth Edition, Clinical and Laboratory Standards Institue, Wayne/PA, US and the CLSI—M100-S24 Jan. 2014. Performance Standards for Antimicrobial Susceptibility Testing; Approved Standard—Fourth Informational Supplement, Clinical and Laboratory Standards Institue, Wayne/PA, US).
The compound stock solution was freshly prepared at 10× the required top concentration for the MIC determination, i.e. at 1280 mg/L, by reconstitution of the dry compound in 50:50 water:DMSO.
Polystyrene non-treated 96 wells microtiter plates were used for preparing panel containing compound serial twofold diluted at two times the final testing concentration (e.g. range from 64 to 0.06 μg/ml) in cation adjusted Mueller Hinton broth medium (CAMHB).
Inoculum was prepared by the “direct colony suspension method”. Colonies of P. aeruginosa ATCC27853 or clinical isolates were suspended in saline solution and adjusted to 0.5 McFarland, diluted 100 times in CAMHB broth and 50 μl added to each well (final concentration of cells ˜5×10^(5) CFU/ml and Final volume/well of 100 μl). Microtiter plates were sealed and incubated at 35±2° C.
MICs values were read after 20 hours of incubation and recorded as the lowest concentration of the antimicrobial that inhibits more or equal to 80% of growth of the organism as detected by the unaided eye and using a microtiter plate optical density reader (OD 600 nm).
Table 1 provides the minimum inhibitory concentration (MIC) in microgram per milliliter of the compounds of present invention obtained against the P. aeruginosa ATCC27853 (Table 1).

[2] = test system: P. aeruginosa NCTC11454; assay: Antimicrobial susceptibility testing: 50% growth inhibitory concentration (IC50) determination; type: cell-based; settings: Pseudomonas aeruginosa, Iso-Sensitest broth, OD 600 nm every 20 minutes over 16h, growth inhibition during logarithmic growth
Method: The in vitro antimicrobial activity of the compounds was alternatively determined according to the following procedure: The assay used a 10-points Iso-Sensitest broth medium to measure quantitatively the in vitro activity of the compounds against P. aeruginosa NCTC11454. Stock compounds in DMSO were serially twofold diluted (e.g. range from 50 to 0.097 μM final concentration) in 384 wells microtiter plates and inoculated with 49 μl the bacterial suspension in Iso-Sensitest medium to have a final cell concentration of ˜5×10^(5) CFU/ml in a final volume/well of 50 ul/well. Microtiter plates were incubated at 35±2° C. Bacterial cell growth was determined with the measurement of optical density at λ=600 nm each 20 minutes over a time course of 16h. Growth inhibition was calculated during the logarithmic growth of the bacterial cells with determination of the concentration inhibiting 50% (IC50) and 90% (IC90) of the growth. Table 2 provides the 50% growth inhibitory concentrations (IC50) in micromoles per liter of the compounds of present invention obtained against P. aeruginosa NCTC11454.

Row | MIC [1] [mg/L] | IC50 [2] [µM] | Structure (SMILES)
1 | > 64 |  | CN1C(=O)[C@H](CCCCN)NC(=O)[C@H](CCCN)NCc2ccccc2Sc2c(Cl)cccc2CNC(=O)[C@@H]1Cc1c[nH]c2ccccc12 [Example 3, (12S,15S,18S)-15-(4-Amino-butyl)-18-(3-amino-propyl)-4-chloro-12-(1H-indol-3-ylmethyl)-13-methyl-2-thia-10,13,16,19-tetraaza-tricyclo[19.4.0.0*3,8*]pentacosa-1(21),3,5,7,22,24-hexaene-11,14,17-trione]
2 | 8 (≈ 9.83 µM) | 8.8 | CN1C(=O)[C@H](CCCCN)NC(=O)[C@H](CCCN)NCc2ccccc2Sc2c(cc(-c3ccccc3)cc2C(F)(F)F)CNC(=O)[C@@H]1Cc1c[nH]c2ccccc12 [Example 28, (12S,15S,18S)-15-(4-Amino-butyl)-18-(3-amino-propyl)-12-(1H-indol-3-ylmethyl)-13-methyl-6-phenyl-4-trifluoromethyl-2-thia-10,13,16,19-tetraaza-tricyclo[19.4.0.0*3,8*]pentacosa-1(25),3,5,7,21,23-hexaene-11,14,17-trione]
3 | 32 (≈ 45.4 µM) | > 50 | CN1C(=O)[C@H](CCCCN)NC(=O)[C@H](CCCN)NCc2ccccc2Sc2cc(Cl)ccc2CNC(=O)[C@@H]1Cc1c[nH]c2ccccc12 [Example 2, (12S,15S,18S)-15-(4-Amino-butyl)-18-(3-amino-propyl)-5-chloro-12-(1H-indol-3-ylmethyl)-13-methyl-2-thia-10,13,16,19-tetraaza-tricyclo[19.4.0.0*3,8*]pentacosa-1(21),3,5,7,22,24-hexaene-11,14,17-trione]
4 | 32 (≈ 39.7 µM) |  | CN1C(=O)[C@H](CCCCN)NC(=O)[C@H](CCCN)NCc2cccnc2Sc2c(cc(C(F)(F)F)cc2C(F)(F)F)CNC(=O)[C@@H]1Cc1c[nH]c2ccccc12 [Example 23, (11S,14S,17S)-14-(4-Amino-butyl)-11-(3-amino-propyl)-17-(1H-indol-3-ylmethyl)-16-methyl-23,25-bis-trifluoromethyl-2-thia-4,10,13,16,19-pentaaza-tricyclo[19.4.0.0*3,8*]pentacosa-1(25),3,5,7,21,23-hexaene-12,15,18-trione]
5 | 32 (≈ 44.1 µM) |  | CN1C(=O)[C@H](CCCCN)NC(=O)[C@H](CCCN)NCc2ccccc2Sc2ccc(C(C)(C)C)cc2CNC(=O)[C@@H]1Cc1c[nH]c2ccccc12 [Example 20, (12S,15S,18S)-15-(4-Amino-butyl)-18-(3-amino-propyl)-6-tert-butyl-12-(1H-indol-3-ylmethyl)-13-methyl-2-thia-10,13,16,19-tetraaza-tricyclo[19.4.0.0*3,8*]pentacosa-1(25),3,5,7,21,23-hexaene-11,14,17-trione]
6 | 32 (≈ 42.9 µM) |  | CN1C(=O)[C@H](CCCCN)NC(=O)[C@H](CCCN)NCc2ccccc2Sc2ccc(-c3ccccc3)cc2CNC(=O)[C@@H]1Cc1c[nH]c2ccccc12 [Example 19, (12S,15S,18S)-15-(4-Amino-butyl)-18-(3-amino-propyl)-12-(1H-indol-3-ylmethyl)-13-methyl-6-phenyl-2-thia-10,13,16,19-tetraaza-tricyclo[19.4.0.0*3,8*]pentacosa-1(25),3,5,7,21,23-hexaene-11,14,17-trione]
7 | 16 (≈ 20.7 µM) |  | CN1C(=O)[C@H](CCCCN)NC(=O)[C@H](CCCN)NCc2ccccc2Sc2c(Cl)cc(C(F)(F)F)cc2CNC(=O)[C@@H]1Cc1c[nH]c2ccccc12 [Example 11, (12S,15S,18S)-15-(4-Amino-butyl)-18-(3-amino-propyl)-4-chloro-12-(1H-indol-3-ylmethyl)-13-methyl-6-trifluoromethyl-2-thia-10,13,16,19-tetraaza-tricyclo[19.4.0.0*3,8*]pentacosa-1(25),3,5,7,21,23-hexaene-11,14,17-trione]
8 | 32 (≈ 42.5 µM) |  | Cc1[nH]c2ccccc2c1C[C@H]1C(=O)NCc2cc(Cl)cc(Cl)c2Sc2ccccc2CN[C@@H](CCCN)C(=O)N[C@@H](CCCCN)C(=O)N1C [Example 17, (12S,15S,18S)-15-(4-Amino-butyl)-18-(3-amino-propyl)-4,6-dichloro-13-methyl-12-(2-methyl-1H-indol-3-ylmethyl)-2-thia-10,13,16,19-tetraaza-tricyclo[19.4.0.0*3,8*]pentacosa-1(21),3,5,7,22,24-hexaene-1,14,17-trione]
9 | 32 (≈ 44.5 µM) | 32 | Cc1[nH]c2ccccc2c1C[C@H]1C(=O)NCc2cc(Cl)ccc2Sc2ccccc2CN[C@@H](CCCN)C(=O)N[C@@H](CCCCN)C(=O)N1C [Example 15, (12S,15S,18S)-15-(4-Amino-butyl)-18-(3-amino-propyl)-6-chloro-13-methyl-12-(2-methyl-1H-indol-3-ylmethyl)-2-thia-10,13,16,19-tetraaza-tricyclo[19.4.0.0*3,8*]pentacosa-1(21),3,5,7,22,24-hexaene-1,14,17-trione]
10 | 32 (≈ 41 µM) |  | CN1C(=O)[C@H](CCCCN)NC(=O)[C@H](CCCN)NCc2cccnc2Sc2c(Cl)ccc(-c3ccccc3)c2CNC(=O)[C@@H]1Cc1c[nH]c2ccccc12 [Example 29, (11S,14S,17S)-14-(4-Amino-butyl)-11-(3-amino-propyl)-25-chloro-17-(1H-indol-3-ylmethyl)-16-methyl-22-phenyl-2-thia-4,10,13,16,19-pentaaza-tricyclo[19.4.0.0*3,8*]pentacosa-1(25),3(8),4,6,21,23-hexaene-12,15,18-trione]
11 | 16 (≈ 20.7 µM) |  | CN1C(=O)[C@H](CCCCN)NC(=O)[C@H](CCCN)NCc2ccccc2Sc2c(cc(Cl)cc2C(F)(F)F)CNC(=O)[C@@H]1Cc1c[nH]c2ccccc12 [Example 13, (12S,15S,18S)-15-(4-Amino-butyl)-18-(3-amino-propyl)-6-chloro-12-(1H-indol-3-ylmethyl)-13-methyl-4-trifluoromethyl-2-thia-10,13,16,19-tetraaza-tricyclo[19.4.0.0*3,8*]pentacosa-1(25),3,5,7,21,23-hexaene-11,14,17-trione]
12 | 32 (≈ 45.8 µM) |  | CCc1ccc2c(c1)CNC(=O)[C@H](Cc1c[nH]c3ccccc13)N(C)C(=O)[C@H](CCCCN)NC(=O)[C@H](CCCN)NCc1ccccc1S2 [Example 18, (12S,15S,18S)-15-(4-Amino-butyl)-18-(3-amino-propyl)-6-ethyl-12-(1H-indol-3-ylmethyl)-13-methyl-2-thia-10,13,16,19-tetraaza-tricyclo[19.4.0.0*3,8*]pentacosa-1(25),3,5,7,21,23-hexaene-11,14,17-trione]
13 | 32 (≈ 44.9 µM) |  | CC(C)c1ccc2c(c1)CNC(=O)[C@H](Cc1c[nH]c3ccccc13)N(C)C(=O)[C@H](CCCCN)NC(=O)[C@H](CCCN)NCc1ccccc1S2 [Example 21, (12S,15S,18S)-15-(4-Amino-butyl)-18-(3-amino-propyl)-12-(1H-indol-3-ylmethyl)-6-isopropyl-13-methyl-2-thia-10,13,16,19-tetraaza-tricyclo[19.4.0.0*3,8*]pentacosa-1(25),3,5,7,21,23-hexaene-11,14,17-trione]
14 | 32 (≈ 45.8 µM) |  | Cc1cccc2c1Sc1ccccc1CN[C@@H](CCCN)C(=O)N[C@@H](CCCCN)C(=O)N(C)[C@@H](Cc1c(C)[nH]c3ccccc13)C(=O)NC2 [Example 16, (12S,15S,18S)-15-(4-Amino-butyl)-18-(3-amino-propyl)-4,13-dimethyl-12-(2-methyl-1H-indol-3-ylmethyl)-2-thia-10,13,16,19-tetraaza-tricyclo[19.4.0.0*3,8*]pentacosa-1(21),3,5,7,22,24-hexaene-11,14,17-trione]
15 | 32 (≈ 42.3 µM) |  | CN1C(=O)[C@H](CCCCN)NC(=O)[C@H](CCCN)NCc2cc(F)ccc2Sc2c(Cl)cc(Cl)cc2CNC(=O)[C@@H]1Cc1c[nH]c2ccccc12 [Example 12, (12S,15S,18S)-15-(4-Amino-butyl)-18-(3-amino-propyl)-4,6-dichloro-23-fluoro-12-(1H-indol-3-ylmethyl)-13-methyl-2-thia-10,13,16,19-tetraaza-tricyclo[19.4.0.0*3,8*]pentacosa-1(25),3,5,7,21,23-hexaene-11,14,17-trione]
